In patent US20260035367A1 (Celgene Corporation, priority 2021, published 2026):
Counter-ions that a name gives are not always drawn. Like-named read-outs stand apart in the source and are kept apart here.

Legend:
[1] = target: T1, Recombinant human PKC-theta (His-tagged 362-706) (Homo sapiens, UniProt Q04759); assay: PKC-theta inhibition assay (HTRF KinEASE kit); assay type: biochemical; settings: STK substrate 525 nM
T1 construct: Recombinant human PKC-theta (His-tagged 362-706); His
In short: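 IC50 values were from 4-parameter logistic fits of percent inhibition, based on acceptor/donor HTRF ratios over 10 semi-log compound doses. Kinase reactions, started with substrate plus ATP, ran 30 min at 25 °C in buffer supplemented with 10 mM MgCl2, 1 mM DTT and 0.1% Tween 20; detection lasted 2 h.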

[2] = target: T2, Recombinant human PKC-delta (His-tagged 345-676) (Homo sapiens, UniProt Q05655); assay: PKC-delta inhibition assay (HTRF KinEASE kit); assay type: biochemical; settings: ratio, PKC-theta vs PKC-delta HTRF; for PKC-theta/PKC-delta selectivity (binned): binned A to G
T2 construct: PKC-delta (His-tagged 345-676); His
T2 sequence (Q05655 345-676): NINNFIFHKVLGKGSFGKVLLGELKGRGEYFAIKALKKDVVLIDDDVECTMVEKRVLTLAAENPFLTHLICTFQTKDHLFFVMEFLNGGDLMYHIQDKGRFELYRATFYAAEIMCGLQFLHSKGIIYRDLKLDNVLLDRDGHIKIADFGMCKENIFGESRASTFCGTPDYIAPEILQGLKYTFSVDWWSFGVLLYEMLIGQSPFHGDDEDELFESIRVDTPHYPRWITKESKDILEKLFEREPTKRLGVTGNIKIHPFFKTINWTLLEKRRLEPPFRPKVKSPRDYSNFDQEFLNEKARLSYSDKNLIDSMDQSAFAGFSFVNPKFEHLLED

[3] = system: IL-2 secretion by human effector memory T cells (TEM); assay: Effector memory T cells IL-2 release assay (CD3/CD28 stimulation, HTRF IL-2 detection); assay type: cell-based; settings: 24 h; for IC50: Homo sapiens, T-cell
In short: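 Human effector memory T cells from healthy-donor buffy coats were exposed in triplicate to ten semi-log doses of compound in 0.1% DMSO. The cells were stimulated and incubated 24 h at 37 °C. Secreted IL-2 in the supernatant was measured by HTRF.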

[4] = ATP 6.5 μM, binned A to H, read-out: PKC-theta HTRF pIC50 (binned) (converted)
[5] = ATP 6.5 μM, read-out: PKC-theta HTRF pIC50 (converted)
[6] = binned A to G, read-out: PKC-theta IL2 pIC50 (binned) (converted)
[7] = read-out: PKC-theta IL2 pIC50 (converted)

T1 sequence (Q04759 362-706): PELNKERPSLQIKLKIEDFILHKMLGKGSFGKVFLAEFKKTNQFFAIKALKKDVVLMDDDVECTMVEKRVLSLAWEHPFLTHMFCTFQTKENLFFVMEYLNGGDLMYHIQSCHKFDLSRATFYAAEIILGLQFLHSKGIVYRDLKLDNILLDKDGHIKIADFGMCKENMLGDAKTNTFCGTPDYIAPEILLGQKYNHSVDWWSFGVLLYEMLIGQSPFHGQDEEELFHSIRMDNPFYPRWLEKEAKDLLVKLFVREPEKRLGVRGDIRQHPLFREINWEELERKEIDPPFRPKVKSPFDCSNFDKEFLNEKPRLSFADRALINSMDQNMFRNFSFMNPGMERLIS

| Compound | IC50 [1, 4] [nM] | IC50 [1, 5] [nM] | PKC-theta/PKC-delta selectivity [2] | PKC-theta/PKC-delta selectivity (binned) [2] | IC50 [3, 6] [nM] | IC50 [3, 7] [nM] | PKC-theta IL2 pIC50 [3] | PKC-theta IL2 pIC50 (binned) ([3]; binned A to G) | IC50 ([1]; PKC-theta HTRF pIC50 (binned), ATP 6.5 μM, binned A to H) [nM] | IC50 ([1]; PKC-theta HTRF pIC50, ATP 6.5 μM) [nM] |
| --- | --- | --- | --- | --- | --- | --- | --- | --- | --- | --- |
| C[C@H]1CNCCN1c1cccc(-c2ccnc3c2C(C)(C)C(=O)N3)c1 [Example 39] | 100 to 316 | 200 | 1 | F (a ratio of between 1 and 5) | > 1000 | 2510 |  |  |  |  |
| C[C@H]1CNCCN1c1cc(F)cc(-c2ccnc3c2C(C)(C)C(=O)N3)c1 [Example 30] | 31.6 to 100 | 31.6 | 2 | F (a ratio of between 1 and 5) | 316 to 1000 | 794 |  |  |  |  |
| CC[C@]1(C)C(=O)Nc2nccc(-c3cc(C(C)(F)F)cc(N4CCNC[C@H]4C)n3)c21 (single isomer, unassigned) [Example 201] | 0.316 to 1 | 0.501 | 18 | D (a ratio of between 10 and 20) | 3.16 to 10 | 7.94 |  |  |  |  |
| CC1(C)C(=O)Nc2nccc(-c3cc(C(F)(F)F)cc(N4CCCNCC4)n3)c21 [Example 175] | 3.16 to 10 | 5.01 | 21 | C (a ratio of between 20 and 30) | 31.6 to 100 | 63.1 |  |  |  |  |
| COC1(C)C(=O)Nc2nccc(-c3cc(Cl)cc(N4CCN[C@@H](C)C4)n3)c21 (some centres unmarked) [Example 115] | 3.16 to 10 | 10 | 12 | D (a ratio of between 10 and 20) | 100 to 316 | 158 |  |  |  |  |
| C[C@H]1CN(c2cc(Cl)cc(-c3ccnc4c3C(C)(O)C(=O)N4)c2)CCN1 (some centres unmarked) [Example 75] | 3.16 to 10 | 7.94 | 11 | D (a ratio of between 10 and 20) | 100 to 316 | 158 |  |  |  |  |
| CO[C@]1(C)C(=O)Nc2nccc(-c3cc(C(F)(F)F)cc(N4CCNC[C@H]4C)n3)c21 (single isomer, unassigned) [Example 176] | 10 to 31.6 | 12.6 | 20 | C (a ratio of between 20 and 30) |  |  | 6.9 | E (a measured pIC50 of between 6.5 and 7.0) |  |  |
| CC1C(=O)Nc2nccc(-c3cc(F)cc(N4CCNCC4)c3)c21 (centres unmarked) [Example 18] | 10 to 31.6 | 25.1 | 3 | F (a ratio of between 1 and 5) | 100 to 316 | 200 |  |  |  |  |
| C[C@@H]1CNCCN(c2cc(C(F)(F)F)cc(-c3ccnc4c3C(C)(C)C(=O)N4)n2)C1 [Example 182] | 3.16 to 10 | 7.94 | 25 | C (a ratio of between 20 and 30) | 100 to 316 | 158 |  |  |  |  |
| CC[C@H]1CN(c2cccc(-c3ccnc4c3C(C)(C)C(=O)N4)c2)CCN1 [Example 51] | 31.6 to 100 | 79.4 | 3 | F (a ratio of between 1 and 5) | > 1000 | 1260 |  |  |  |  |
| C[C@@]1(O)C(=O)Nc2nccc(-c3cc(F)cc(N4CCNCC4)c3)c21 (single isomer, unassigned) [Example 63] | 316 to 1000 | 1000 |  | G (a ratio of 0 to 1) | > 1000 | 10000 |  |  |  |  |
| C[C@@H]1CN(c2cc(-c3ccnc4c3C(C)(O)C(=O)N4)cc(C(F)(F)F)c2)CCN1 (some centres unmarked) [Example 77] | 31.6 to 100 | 100 | 12 | D (a ratio of between 10 and 20) | > 1000 | 2510 |  |  |  |  |
| CC[C@@]1(O)C(=O)Nc2nccc(-c3cc(C(F)(F)F)cc(N4CCNC[C@H]4C)n3)c21 (single isomer, unassigned) [Example 166] | 1 to 3.16 | 3.16 | 6 | E (a ratio of between 5 and 10) | 10 to 31.6 | 31.6 |  |  |  |  |
| CC1C(=O)Nc2nccc(-c3cccc(CN4CCNCC4)c3)c21 (centres unmarked) [Example 19] | 100 to 316 | 200 | 2 | F (a ratio of between 1 and 5) | > 1000 | 2000 |  |  |  |  |
| O=c1[nH]c2nccc(-c3cc(N4CCNCC4)ccn3)c2[nH]1 [Example 16] | > 1000 | 6310 | 1 | G (a ratio of 0 to 1) | > 1000 | 10000 |  |  |  |  |
| COC1(C)C(=O)Nc2nccc(-c3cc(F)cc(N4CCNCC4)c3)c21 (centres unmarked) [Example 57] | 31.6 to 100 | 50.1 | 6 | E (a ratio of between 5 and 10) | 316 to 1000 | 631 |  |  |  |  |
| CC(F)(F)c1cc(-c2c(F)cnc3c2C(C)(C)C(=O)N3)nc(N2CCNCC2)c1 [Example 174] | 31.6 to 100 | 31.6 | 10 | D (a ratio of between 10 and 20) | 100 to 316 | 316 |  |  |  |  |
| CCC1(C)C(=O)Nc2nccc(-c3cc(C(F)(F)F)cc(N4CCNC[C@H]4C)n3)c21 (some centres unmarked) [Example 144] | 1 to 3.16 | 1.58 | 23 | C (a ratio of between 20 and 30) | 10 to 31.6 | 25.1 |  |  |  |  |
| O=C1Nc2nccc(-c3cc(C(F)(F)F)cc(N4CCNCC4)n3)c2C12CCCC2 [Example 103] | 10 to 31.6 | 15.8 | 6 | E (a ratio of between 5 and 10) | 100 to 316 | 100 |  |  |  |  |
| CC[C@]1(O)C(=O)Nc2nccc(-c3cc(Cl)cc(N4CCN[C@@H](C)C4)n3)c21 (single isomer, unassigned) [Example 163] | 3.16 to 10 | 3.98 | 10 | D (a ratio of between 10 and 20) | 10 to 31.6 | 31.6 |  |  |  |  |
| C[C@H]1CNCCN1c1cccc(-c2ccnc3[nH]c(=O)[nH]c23)c1 [Example 8, 7-[3-[(2S)-2-methylpiperazin-1-yl]phenyl]-1,3-dihydroimidazo[4,5-b]pyridin-2-one dihydrochloride] |  |  | 2 | F (a ratio of between 1 and 5) | > 1000 | 3980 |  |  | 316 to 1000 | 398 |
| CC1(C)C(=O)Nc2nccc(-c3cccc(S(=O)(=O)N4CCNCC4)c3)c21 [Example 42] | > 1000 | 2000 | 1 | F (a ratio of between 1 and 5) | > 1000 | 10000 |  |  |  |  |
| C[C@@]1(O)C(=O)Nc2nccc(-c3cc(Cl)cc(N4CCNC(CC(F)(F)F)C4)n3)c21 (single isomer, unassigned) [Example 122] | 3.16 to 10 | 3.98 | 16 | D (a ratio of between 10 and 20) | 100 to 316 | 251 |  |  |  |  |
| CC1(O)C(=O)Nc2nccc(-c3cc(N4CCNCC4)cc(C(F)(F)F)c3)c21 (centres unmarked) [Example 56] | 10 to 31.6 | 20 | 14 | D (a ratio of between 10 and 20) | 316 to 1000 | 794 |  |  |  |  |
| C[C@]1(O)C(=O)Nc2nccc(-c3cc(F)cc(N4CCNCC4)c3)c21 (single isomer, unassigned) [Example 62] | 3.16 to 10 | 6.31 | 5 | E (a ratio of between 5 and 10) | 100 to 316 | 126 |  |  |  |  |
| CC1(C)C(=O)Nc2nccc(-c3cc(C(F)(F)F)cc(NC4CCNC4)n3)c21 (centres unmarked) [Example 100] | 31.6 to 100 | 63.1 | 30 | B (a ratio of between 30 and 50) | > 1000 | 5010 |  |  |  |  |
| C[C@H]1CNCCN1c1cc(C(F)(F)F)cc(-c2ccnc3c2[C@](C)(O)C(=O)N3)n1 (single isomer, unassigned) [Example 93] | 10 to 31.6 | 12.6 | 12 | D (a ratio of between 10 and 20) | 100 to 316 | 126 |  |  |  |  |
